Data from patent US20240010987A1, “IN VITRO LIVER DISEASE MODEL USING TRIPLE CO-CULTURE AND PREPARATION METHOD THEREOF” (FUTURE MEDICINE CO., LTD., priority 2020, published 2024).

What was measured:
[1] = system: HuH-7:LX-2:ImKC triple co-culture; assay: Marker changes in triple co-culture in vitro liver disease model (steatosis, inflammation, fibrosis) after drug treatment; type: cell-based, human (HuH-7, mouse (ImKC); settings: hepatic steatosis (FFA), inflammation (FFA+LPS) or fibrosis (FFA+TGF-β1) induced; FIGS. 5 to 14
Protocol: After the cells were fixed for 1 hour for direct co-culture, a 0.4 μm pore size cell culture insert (Corning™) was positioned on top of a direct co-culture dish for indirect co-culture of the corresponding cells with an immortalized mouse Kupffer cell line (ImKC). The cell suspensions of the immortalized mouse Kupffer cell line (ImKC) were added to the positioned cell culture insert (Corning™) such that the number of cells per area was 15,000 cells/cm^2, and the cells were cultured in a CO2 incubator (Thermo Scientific™) under 37° C. and 5% CO2 conditions for 24 hours (FIG. 1).
The cell culture dishes for each experimental group shown in the following Table 3, which was cultured for 24 hours in a CO2 incubator (Thermo Scientific™) under 37° C. and 5% CO2 conditions at 24 hours before FFA treatment, were taken out, the cell culture medium was carefully discarded, and a co-culture medium including 1,000 μM FFA (oleic:palmitic molar ratio 2:1) was added thereto. After FFA treatment, the cell culture dishes were incubated in a CO2 incubator (Thermo Scientific™) under 37° C. and 5% CO2 conditions for 144 hours. The co-culture medium including FFA was replaced at 48 and 96 hours after FFA treatment (FIG. 4).
The cell culture dishes for each experimental group shown in Table 3, which was cultured in a CO2 incubator (Thermo Scientific™) under 37° C. and 5% CO2 conditions at 72 and 96 hours before LPS treatment, were taken out, the cell culture medium was carefully discarded, and a culture medium including 0.5 ng/ml LPS was added to 1,000 μM FFA (oleic:palmitic molar ratio 2:1). After LPS treatment, the cell culture dishes were incubated in a CO2 incubator (Thermo Scientific™) under 37° C. and 5% CO2 conditions for 48 and 72 hours. […]
The absorbance of each cell culture treated with FM101 and the control material was measured in the same manner as in Experimental Example 3-1.
The absorbance of each cell culture treated with FM101 and the control material was measured in the same manner as in Experimental Example 3-2. […]

[2] = system: A3 adenosine receptor; settings: in vivo experiments, EXCLI J. 2020 Feb. 12; 19:187-200; cited from earlier work

Row | SMILES | responsiveness of markers in triple co-culture cells on drug treatment, compared to directly co-cultured cells [1] | modulation of A3 adenosine receptor as A3AR ligand [2]
1 | CNC(=O)[C@H]1O[C@@H](n2cnc3c(NCc4cccc(I)c4)nc(Cl)nc32)[C@H](O)[C@@H]1O [CF102, Namodenoson] | higher responsiveness and more concentration-dependent responsiveness | –
2 | OC1CSC(n2cnc3c(NCc4cccc(Cl)c4)nc(Cl)nc32)C1O (stereo not shown) [FM101] | higher responsiveness and more concentration-dependent responsiveness | modulates an A3 adenosine receptor
3 | CC(C)c1cc(Oc2c(Cl)cc(-n3nc(C#N)c(=O)[nH]c3=O)cc2Cl)n[nH]c1=O [MGL-3196, Resmetirom] | higher responsiveness and more concentration-dependent responsiveness | –
